Results taken from patent US20060166956A1, “Use of anecortave acetate for the protection of visual acuity in patients with age related macular degeneration” (priority 2002, published 2006).

Experiments:
[1] = test system: patients with subfoveal choroidal neovascularization (CNV) secondary to AMD; experiment: Clinical trial: best-corrected log MAR visual acuity after single posterior juxtascleral administration; format: in vivo
From the text: (§1) This ongoing trial was initiated to compare the clinical efficacy of anecortave acetate versus placebo treatment for preservation (maintenance) of vision and inhibition of CNV lesion growth. Patients with a log MAR visual acuity of 0.3 (20/40 Snellen equivalent) to 1.2 (20/320 Snellen equivalent) and primary or recurrent subfoveal choroidal neovascularization (CNV) secondary to AMD with a lesion up to 30.48 mm^2 (12 disc areas) in size were enrolled. At Baseline and follow-up visits, best-corrected log MAR visual acuity was obtained on all patients using guidelines previously established for the Early Treatment Diabetic Retinopathy Study. Patient lesion eligibility for this study was determined from standardized fluorescein angiograms at the Digital Angiography Reading Center (DARC) by certified Readers (trained retina specialists) prior to enrollment and treatment. The DARC also evaluated changes from Baseline in the fluorescein angiographic characteristics of the lesions in masked fashion. Each data point represents the average of at least two independent evaluations by DARC Readers. Because all angiographic data for this study is being collected using the same fundus camera and digital camera systems and stored as uncompressed digital images, the actual lesion surface areas can be more closely approximated in mm^2 rather than requiring the disc area “best-fit” estimates previously used for film angiographic data.
The 128 patients in this double-masked, dose-response study were enrolled and treated between April 1999 and May 2001 by 18 participating sites in the US and EU. Prior to treatment, patients were enrolled and equally randomized to anecortave acetate sterile suspension for injection 30 mg (N=33), 15 mg (N=33), or 3 mg (N=32) or to placebo (vehicle, N=30). Masking of the clinical sites as to treatment group is being maintained in two ways. Study medication is masked by placing the treatment kits including study medication and supplies for the posterior juxtascleral administration in sealed opaque boxes identified by patient number only. The boxes were numbered sequentially at each clinical site and patients were assigned the next available sequential number upon enrollment. The randomization was built into the sequential numbering of the treatment kits and blocked within each site to maintain equal distribution across treatment assignments. Masking as to treatment group is also being maintained at each site by having an unmasked injecting investigator perform the treatments and a masked examining investigator perform the subsequent evaluations. Upon enrollment of each patient, anecortave acetate or placebo was administered behind the eye as a 0.5 mL posterior juxtascleral injection onto the outer surface of the sclera near the macula using a specially designed cannula. The cannula is described in commonly owned U.S. Pat. No. 6,413,245B 1.
Clinical efficacy data is being obtained from evaluations of best-corrected log MAR visual acuity and standardized fluorescein angiograms. Clinical safety data obtained from general physical examinations, laboratory evaluations of blood and urine, and complete ophthalmic examinations, including indocyanine green angiography, continue to be periodically evaluated by the Independent Safety Committee overseeing this study. Clinical data from evaluations for safety and efficacy performed at Day 1-2, Week 2, Week 6, Month 3, and Month 6 following patient randomization and treatment are reported here. […]

[2] = test system: subfoveal CNV lesion secondary to AMD; experiment: Clinical trial: CNV lesion surface area change by standardized fluorescein angiograms (DARC); format: in vivo, patients; details: for inhibition of lesion growth, comparison with placebo: Month 6
From the text: as §1
The primary efficacy outcome for this ongoing study is the mean change from Baseline in best-corrected log MAR visual acuity. Secondary efficacy outcomes are: the percentage of patients with preservation or maintenance of vision (defined as loss of less than three log MAR lines [less than 15 log MAR letters] of visual acuity); the percentage of patients with clinically significant worsening of vision (defined as a loss of at least three log MAR lines [at least 15 log MAR letters] of visual acuity); the percentage of patients with severe vision loss (defined as a loss of at least six log MAR lines [at least 30 log MAR letters] of visual acuity); and changes in CNV lesion characteristics (defined as total lesion area, total CNV and total classic CNV).
All efficacy analyses were based on the intent-to-treat principle. All patients received the medication to which they were assigned, and were analyzed accordingly. Last-observation-carry-forward was used to impute missing values. Baseline comparisons were tested using analysis of variance (for continuous outcomes) and Pearson's chi square (for binary outcomes). Changes from baseline in visual acuity and lesion parameters were tested in a repeated measures analysis of variance model with appropriate contrasts for the 6-month comparisons. Comparisons of binary outcomes at Month 6 were evaluated using Pearson's chi-square tests. All analyses of ocular outcomes are based on changes in the study (i.e., treated) eye.
Total lesion areas, total CNV areas, and total classic CNV areas were measured and compared among treatment groups.

[3] = test system: patients with exudative AMD; experiment: Clinical trial: clinical safety evaluation (Independent Safety Committee); format: in vivo
From the text: Clinical efficacy data is being obtained from evaluations of best-corrected log MAR visual acuity and standardized fluorescein angiograms. Clinical safety data obtained from general physical examinations, laboratory evaluations of blood and urine, and complete ophthalmic examinations, including indocyanine green angiography, continue to be periodically evaluated by the Independent Safety Committee overseeing this study. Clinical data from evaluations for safety and efficacy performed at Day 1-2, Week 2, Week 6, Month 3, and Month 6 following patient randomization and treatment are reported here.
Following completion of the Month 6 visit by all patients, the accumulated safety data were evaluated by the Independent Safety Committee overseeing this study. […] The most common ocular changes reported were changes in lens opacity using the Lens Opacity Classification System (LOCS) II, and included reports of nuclear color, nuclear opalescence, cortical, and posterior subcapsular changes. Cataracts are a common intercurrent disorder in this patient population, and the changes seen were documented in all treatment groups and in contralateral (untreated) eyes. The cataractous changes reported were described as mild and typically unrelated to treatment. The second most common ocular change, a decrease in vision (defined as a decrease of ≧4 log MAR lines from the previous visit), is also a common problem in this patient population. These vision decreases occurred in all treatment groups and in the contralateral eye. Other ocular changes (occurring with a frequency greater than 5%) were ptosis, ocular pain, subconjunctival hemorrhage, ocular pruritis, ocular burning/stinging, pupil disorders, foreign body sensation, ocular hyperemia, and abnormal vision. These changes were reported in all four treatment groups, in both treated eyes and contralateral eyes, were characterized as primarily mild, were generally not attributed to treatment, and were transient in nature. The single report of an IOP increase (≧10 mmHg) from Baseline occurred in a patient treated with anecortave acetate 30 mg and was attributed to intercurrent illness. Of the ocular changes reported, those most frequently attributed to study treatment were ptosis, ocular pain, subconjunctival hemorrhage, ocular pruritis, and ocular burning/stinging. These treatment-related events were mostly mild, transient, and seen within all four treatment groups.

With `CC(=O)OCC(=O)[C@@]1(O)CC[C@H]2[C@@H]3CCC4=CC(=O)CC[C@]4(C)C3=CC[C@@]21C` [anecortave acetate, 4,9(11)-pregnadien-17α,21-diol-3,20 dione-21 acetate] the “mean change at Month 6 from Baseline in log MAR visual acuity, comparison with placebo” value ([1]; 3 mg) was “Trends also favor treatment”, the “percentage of patients with preservation of vision (decrease of less than three log MAR lines)” value ([1]; 15 mg, Month 6, all patients) was 88% and the “percentage of patients with preservation of vision (decrease of less than three log MAR lines)” value ([1]; 15 mg, Month 6, subgroup with predominantly classic CNV lesion, p=0.0209 vs placebo) was 92%. For the same compound, the “mean change at Month 6 from Baseline in log MAR visual acuity, comparison with placebo” value ([1]; 15 mg, p=0.0032) was “statistically superior to placebo treatment”, the “mean change at Month 6 from Baseline in log MAR visual acuity, comparison with placebo” value ([1]; 30 mg) was “Trends also favor treatment” and the “inhibition of lesion growth, comparison with placebo” value ([2]; 3 mg) was “trend favoring”. For the same compound, the “inhibition of total CNV surface area (percent change from Baseline), comparison with placebo” value ([2]; 15 mg, Month 6, p=0.0001) was “statistically superior to placebo treatment”, the “inhibition of total lesion surface area (percent change from Baseline), comparison with placebo” value ([2]; 15 mg, Month 6, p=0.0005) was “statistically superior to placebo treatment” and the “inhibition of total classic CNV surface area (percent change from Baseline), comparison with placebo” value ([2]; 15 mg, Month 6, p=0.0008) was “statistically superior to placebo treatment”. The “inhibition of lesion growth, comparison with placebo” value ([2]; 30 mg) was “trend favoring”, the “reports of IOP increase (≧10 mmHg) from Baseline” value ([3]; 30 mg) was “single report” and the “changes in blood chemistry, hematology, or urinalysis” value ([3]; all doses) was “No treatment-related changes”. For the same compound, the “safety concerns identified by the Independent Safety Committee” value ([3]; all doses, after Month 6 visit) was “no clinically relevant medication-related or administration-related safety concerns were identified” and the “ocular corticosteroid side effects (elevated intraocular pressure, accelerated cataract progression)” value ([3]; clinical study, at least 6 months exposure) was “no clinical evidence”.
